Patent US9546176B2, “Small molecule bicyclic and tricyclic CFTR correctors” (DISCOVERYBIOMED, INC., priority 2012, dated 2017)

The compounds below were run against T1, delF508-CFTR (Homo sapiens, UniProt P13569, DEL508-508) (assay: SPQ halide-sensitive fluorescence dye assay for rescue of halide efflux (8-point concentration-response)). Details: CFBE41o- cells, 48 h.
T1 construct: endogenous in cells; host or cells: CFBE41o- human CF bronchial epithelial cells (delF508 homozygous)
Assay type: cell-based
Experimental: The method of profiling can include detecting the rescue of halide efflux from a cell. The step of detecting a rescue of halide efflux from the cell can be monitored using the halide quenched dye 6-methoxy-N-(3-sulfopropyl)-quinolinium (SPQ, Molecular Probes Inc., Eugene, Oreg.). In this method, cells are treated with a compound as described herein for a period of time (e.g., 48 hours). The rescue or correction of halide efflux is then detected using the SPQ assay with the halide dye. […] Optionally, the halide efflux is chloride efflux. The method of screening can further comprise performing the method with multiple concentrations of the compound.
The compounds were initially subjected to the SPQ halide-sensitive fluorescence dye profiling assay for rescue or correction of membrane chloride ion permeability or transport with an 8-point concentration-response curve. The EC50 values for the compounds described herein were determined using SPQ (Table 1). The ΔSPQ value was calculated by determining the difference between the maximum and minimum SPQ values for the compounds.
To perform the SPQ high throughput screening assay, CFBE41o-cells were seeded into 96-well microtiter plates and were loaded with the fluorescent halide-sensitive dye, SPQ, in serum-containing culture medium. Certain wells were loaded with known positive control corrector molecules, including the industry standard Vertex 809 (VX-809; Vertex Pharmaceuticals, Cambridge, Mass.) at 3 μM, which is the maximally effective profiling dose for VX-809. The test compounds were loaded into wells and were tested in triplicate wells at a 10 μM dose and incubated over 48 hours at room temperature. During the 48 hour period, SPQ was absorbed. Plates were washed in a sodium chloride (NaCl) based Ringer and read once over two minutes to set the baseline SPQ fluorescence activity. Then, NaCl was replaced by sodium nitrate (NaNO3) based Ringer. The plates were read twice over four minutes. The primary high throughput screen (HTS) data were analyzed to detect any function of rescued delF508-CFTR under basal conditions. The plate was read up to two times to complete the SPQ HTS assay.

T1 sequence (P13569 with tags, fused parts or gaps DEL508-508): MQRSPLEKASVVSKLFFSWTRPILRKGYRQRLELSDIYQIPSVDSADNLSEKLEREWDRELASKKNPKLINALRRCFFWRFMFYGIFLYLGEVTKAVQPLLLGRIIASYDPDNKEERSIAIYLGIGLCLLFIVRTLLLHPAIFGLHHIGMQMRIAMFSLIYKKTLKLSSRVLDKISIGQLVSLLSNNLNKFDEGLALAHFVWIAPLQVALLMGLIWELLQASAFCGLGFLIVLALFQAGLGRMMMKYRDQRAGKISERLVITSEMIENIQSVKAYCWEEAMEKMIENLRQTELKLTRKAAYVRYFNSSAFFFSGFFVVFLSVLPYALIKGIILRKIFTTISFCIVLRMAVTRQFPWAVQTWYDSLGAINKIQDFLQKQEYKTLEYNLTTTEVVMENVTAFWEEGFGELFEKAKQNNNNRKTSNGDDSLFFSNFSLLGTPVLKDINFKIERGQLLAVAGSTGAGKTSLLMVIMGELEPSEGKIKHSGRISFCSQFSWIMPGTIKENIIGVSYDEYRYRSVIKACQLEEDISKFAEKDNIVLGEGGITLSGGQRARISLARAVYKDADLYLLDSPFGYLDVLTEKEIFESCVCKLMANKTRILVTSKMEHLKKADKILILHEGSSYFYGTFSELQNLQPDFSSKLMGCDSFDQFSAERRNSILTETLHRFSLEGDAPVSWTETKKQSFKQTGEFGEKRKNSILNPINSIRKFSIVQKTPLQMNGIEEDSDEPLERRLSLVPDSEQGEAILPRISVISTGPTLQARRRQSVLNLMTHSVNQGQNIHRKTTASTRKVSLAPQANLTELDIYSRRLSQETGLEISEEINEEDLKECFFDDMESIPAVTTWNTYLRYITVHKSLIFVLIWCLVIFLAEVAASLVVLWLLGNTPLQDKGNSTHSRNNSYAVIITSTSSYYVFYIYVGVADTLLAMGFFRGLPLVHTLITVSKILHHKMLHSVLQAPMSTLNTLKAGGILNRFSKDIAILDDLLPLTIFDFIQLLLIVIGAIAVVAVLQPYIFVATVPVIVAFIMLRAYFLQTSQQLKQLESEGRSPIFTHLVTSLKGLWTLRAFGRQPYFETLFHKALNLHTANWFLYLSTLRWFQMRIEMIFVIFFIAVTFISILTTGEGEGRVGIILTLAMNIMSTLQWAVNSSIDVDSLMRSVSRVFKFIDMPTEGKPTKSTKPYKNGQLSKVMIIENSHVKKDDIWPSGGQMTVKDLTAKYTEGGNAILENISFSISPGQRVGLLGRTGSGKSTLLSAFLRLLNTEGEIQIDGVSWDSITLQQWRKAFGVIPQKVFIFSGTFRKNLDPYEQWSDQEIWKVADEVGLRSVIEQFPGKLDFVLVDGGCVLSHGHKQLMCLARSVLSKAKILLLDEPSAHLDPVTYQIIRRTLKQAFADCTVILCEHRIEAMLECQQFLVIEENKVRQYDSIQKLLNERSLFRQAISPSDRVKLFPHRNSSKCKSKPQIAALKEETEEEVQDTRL

| SMILES | ΔSPQ (difference between maximum and minimum SPQ values) [RFU] | SPQ EC50 |
| --- | --- | --- |
| CCn1c(=O)c2c(nc3n(Cc4ccco4)c(C)c(C)n23)n(C)c1=O [Compound I-36] | 3375 |  |
| CCn1c(=O)c2c(nc3n(-c4cccc(OC)c4)c(C)c(C)n23)n(C)c1=O [Compound I-29] | 10298 |  |
| C/C=C/Cn1c(=O)c2c(nc3n2CCN3Cc2ccco2)n(C)c1=O [Compound I-53] | 6050 |  |
| Cc1c(C)n2c3c(=O)n(CC(C)C)c(=O)n(C)c3nc2n1Cc1ccco1 [Compound I-44] | 9148 |  |
| CCOCCn1c(=O)c2c(nc3n2CCN3c2cc(C)ccc2C)n(C)c1=O [Compound I-40] | 12347 |  |
| CCn1c(=O)c2c(nc3n(-c4ccc(C)cc4)c(C)cn23)n(C)c1=O [Compound I-9] | 3793 |  |
| CCOCCn1c(=O)c2c(nc3n(-c4ccc(OC)cc4)c(C)c(C)n23)n(C)c1=O [Compound I-45] | 5321 |  |
| C/C=C/Cn1c(=O)c2c(nc3n(-c4ccccc4O)c(C)c(C)n23)n(C)c1=O [Compound I-19] | 2058 |  |
| Cn1c(=O)c2[nH]c(N3CCN(c4ccncc4)CC3)nc2n(C)c1=O [Compound B-4] |  | No effect |
| Cc1cn2c3c(=O)n(C)c(=O)n(C)c3nc2n1CCO [Compound A-7] |  | No effect |
| CCn1c(=O)c2c(nc3n(-c4ccccc4OC)c(C)c(C)n23)n(C)c1=O [Compound I-25] | 6949 |  |
| CCCn1c(=O)c2c(nc3n(-c4ccccc4OC)c(C)c(C)n23)n(C)c1=O [Compound I-17] | 3733 |  |
| C/C=C/Cn1c(=O)c2c(nc3n(CCCC)c(C)cn23)n(C)c1=O [Compound I-27] | 8829 |  |
| CCCn1c(C)cn2c3c(=O)n(Cc4ccccc4)c(=O)n(C)c3nc12 [Compound I-12] | 6259 |  |

The next lines start with the values.

| ΔSPQ (difference between maximum and minimum SPQ values) [RFU] | SPQ EC50 | SMILES |
| --- | --- | --- |
| 5748 |  | COc1cccc(N2CC(C)Cn3c2nc2c3c(=O)n(CCCO)c(=O)n2C)c1 (stereo not drawn) [IV-10] |
| 12028 |  | CCCCn1c(=O)c2c(nc3n2CC(C)=NN3CCC)n(C)c1=O [Compound V-4] |
| 8952 |  | C=CCN1N=C(C)Cn2c1nc1c2c(=O)n(CCCC)c(=O)n1C [Compound V-6] |
| 9555 |  | CCCn1c(=O)c2c(nc3n2CC(C)=NN3CCC(C)C)n(C)c1=O [Compound V-10] |
| 12233 |  | CCCN1N=C(C)Cn2c1nc1c2c(=O)n(CC(C)C)c(=O)n1C [Compound V-1] |
| 15138 |  | CCn1c(=O)c2c(nc3n2CCCN3c2cccc(OC)c2)n(C)c1=O [IV-3] |
| 12223 |  | C=CCN1N=C(C)Cn2c1nc1c2c(=O)n(CC(C)C)c(=O)n1C [Compound V-7] |
| 9200 |  | C=CCn1c(=O)c2c(nc3n2CC(C(C)(C)C)=NN3CC)n(C)c1=O [Compound V-5] |
| 2625 |  | CC1=NNc2nc3c(c(=O)n(Cc4cccc(C)c4)c(=O)n3C)n2C1C (stereo not drawn) [Compound V-11] |
| 3979 |  | C=CCn1c(=O)c2c(nc3n2CC(C)=NN3Cc2ccccc2)n(C)c1=O [Compound V-17] |
| 5767 |  | C/C=C/CN1N=C(C)Cn2c1nc1c2c(=O)n(CC(C)C)c(=O)n1C [Compound V-14] |
| 2777 |  | CCCn1c(=O)[nH]c(=O)c2c3c(cnc21)C(=O)CC(c1cccs1)C3 (stereo not drawn) [VI-2] |

Same assay, conditions: CFBE41o- cells, 48 h; read-out: SPQ EC50

| SMILES | EC50 [µM] |
| --- | --- |
| CCn1c(=O)c2c(nc3n(Cc4ccco4)c(C)c(C)n23)n(C)c1=O [Compound I-36] | 7.1 |
| CCn1c(=O)c2c(nc3n(-c4cccc(OC)c4)c(C)c(C)n23)n(C)c1=O [Compound I-29] | 9.6 |
| C/C=C/Cn1c(=O)c2c(nc3n2CCN3Cc2ccco2)n(C)c1=O [Compound I-53] | 11 |
| Cc1c(C)n2c3c(=O)n(CC(C)C)c(=O)n(C)c3nc2n1Cc1ccco1 [Compound I-44] | 10 |
| CCOCCn1c(=O)c2c(nc3n2CCN3c2cc(C)ccc2C)n(C)c1=O [Compound I-40] | 9.5 |
| CCn1c(=O)c2c(nc3n(-c4ccc(C)cc4)c(C)cn23)n(C)c1=O [Compound I-9] | 3.7 |
| CCOCCn1c(=O)c2c(nc3n(-c4ccc(OC)cc4)c(C)c(C)n23)n(C)c1=O [Compound I-45] | 23.3 |
| C/C=C/Cn1c(=O)c2c(nc3n(-c4ccccc4O)c(C)c(C)n23)n(C)c1=O [Compound I-19] | 3.2 |
| CCn1c(=O)c2c(nc3n(-c4ccccc4OC)c(C)c(C)n23)n(C)c1=O [Compound I-25] | 10.4 |
| CCCn1c(=O)c2c(nc3n(-c4ccccc4OC)c(C)c(C)n23)n(C)c1=O [Compound I-17] | 8.8 |
| C/C=C/Cn1c(=O)c2c(nc3n(CCCC)c(C)cn23)n(C)c1=O [Compound I-27] | 18.4 |
| CCCn1c(C)cn2c3c(=O)n(Cc4ccccc4)c(=O)n(C)c3nc12 [Compound I-12] | > 30 |

Now from value to compound:

| EC50 [µM] | SMILES |
| --- | --- |
| 22.9 | COc1cccc(N2CC(C)Cn3c2nc2c3c(=O)n(CCCO)c(=O)n2C)c1 (stereo not drawn) [IV-10] |
| 7 | CCCCn1c(=O)c2c(nc3n2CC(C)=NN3CCC)n(C)c1=O [Compound V-4] |
| > 30 | C=CCN1N=C(C)Cn2c1nc1c2c(=O)n(CCCC)c(=O)n1C [Compound V-6] |
| 8.8 | CCCn1c(=O)c2c(nc3n2CC(C)=NN3CCC(C)C)n(C)c1=O [Compound V-10] |
| 17.1 | CCCN1N=C(C)Cn2c1nc1c2c(=O)n(CC(C)C)c(=O)n1C [Compound V-1] |
| 25.5 | CCn1c(=O)c2c(nc3n2CCCN3c2cccc(OC)c2)n(C)c1=O [IV-3] |
| 23 | C=CCN1N=C(C)Cn2c1nc1c2c(=O)n(CC(C)C)c(=O)n1C [Compound V-7] |
| 8 | C=CCn1c(=O)c2c(nc3n2CC(C(C)(C)C)=NN3CC)n(C)c1=O [Compound V-5] |
| 11.3 | CC1=NNc2nc3c(c(=O)n(Cc4cccc(C)c4)c(=O)n3C)n2C1C (stereo not drawn) [Compound V-11] |
| 23 | C=CCn1c(=O)c2c(nc3n2CC(C)=NN3Cc2ccccc2)n(C)c1=O [Compound V-17] |
| > 30 | C/C=C/CN1N=C(C)Cn2c1nc1c2c(=O)n(CC(C)C)c(=O)n1C [Compound V-14] |
| 4.2 | CCCn1c(=O)[nH]c(=O)c2c3c(cnc21)C(=O)CC(c1cccs1)C3 (stereo not drawn) [VI-2] |

Same assay, conditions: versus VX-809

| potency and efficacy compared with VX-809 in SPQ assay | SMILES |
| --- | --- |
| superior potency and efficacy to VX-809 | CCCCn1c(=O)c2c(nc3n2CC(C)=NN3CCC)n(C)c1=O [Compound V-4] |
